In publication PMC1190152, “Archazolid and apicularen: Novel specific V-ATPase inhibitors” (BMC Biochemistry, 2005):
Where two headings read alike, the source gives them in different places.

Key:
[1] = target: T1, F-ATPase (Mus musculus, UniProt P56480); test: Inhibition of F-ATPase activity in crude membranes from mouse heart; format: biochemical
T1 construct: we prepared mitochondria rich crude membranes from mouse heart; from tissue; host or cells: mouse heart, crude membrane extract
Protocol: (§1) The V-ATPase holoenzyme was purified as published elsewhere. Preparation of highly purified membranes containing Na^+/K^+-ATPase from pig kidney followed the protocol of Jørgensen with the three main steps of differential centrifugation, incubation with SDS in the presence of ATP and sucrose density gradient centrifugation in a fixed angle rotor, and led to a specific enzyme activity which was in the same range as that reported by the authors. The resulting sample was stored frozen at -20°C. To prepare crude membrane extracts, the hearts of three mice were washed three times with an ice-cold buffer of pH 8.1 consisting of 0.25 M sucrose, 5 mM Tris-HCl, 5 mM EDTA, and 10 mM Pefabloc SC (Biomol), homogenized in 5 ml of this buffer and centrifuged at 4°C for 25 min at 233,000 × gmax in a fixed angle rotor. The resulting pellet was resuspended in 5 ml of a buffer of pH 7.5, consisting of 5 mM Tris-MOPS (3-morpholinopropanesulfonic acid), 10 mM NaCl, 10 mM Pefabloc SC, 9.6 mM 2-mercaptoethanol, 0.53 mM EGTA and 0.1 % Triton X-100. After an aliquot for protein determination had been taken, 10% bovine serum albumin (final concentration) was added to the suspension which was then stored on ice until the activity assays were run. Beef heart mitochondria were isolated by differential centrifugation, following the protocol of Smith by using a blender to homogenize the heart mince. The initial homogenization buffer consisted of 250 mM saccharose, 10 mM KH2PO4, 10 mM Tris, 2 mM EGTA, 2 mM MgCl2, pH 7.4, and further isolation procedures were carried out in the same medium without EGTA [24]. Submitochondrial particles were obtained by ultrasonic treatment of the mitochondria.
(§2) Standard V-ATPase assays with a final volume of 160 μl and a pH of 8.1 consisted of 3–4 μg of protein, 50 mM Tris-MOPS, 3 mM 2-mercaptoethanol, 1 mM MgCl2, 20 mM KCl, 0.003% C12E10, 20 mM NaCl, and 3 mM Tris-HCl. After 5 min of pre-incubation at 30°C with or without inhibitors, 1 mM Tris-ATP was added and after incubation for 2 min the reaction was stopped by placing the tube in liquid nitrogen. Assays using Na^+/K^+-ATPase were performed in 160 μl at pH 7.5 and contained 0.5 μg of protein, 50 mM Tris-MOPS, 5 mM imidazole, 0.2 mM EDTA, 4 mM MgCl2, 20 mM KCl and 100 mM NaCl. After 5 min of pre-incubation at 37°C with or without inhibitors, 3 mM Tris-ATP was added and after 1 min of incubation the reaction was stopped by placing the tube in liquid nitrogen. […] After 5 min of pre-incubation at 30°C with or without inhibitors, 1 mM Tris-ATP was added and after an incubation time of 10 min the reaction was stopped by placing the tubes in liquid nitrogen. ATPase assays with submitochondrial particles from beef heart were performed in a final volume of 1 ml and a pH of 8.0. The samples contained 9–12 μg protein, 50 mM Tris, 50 mM KCl and 2.5 mM MgCl2. After 5 min of preincubation with or without inhibitors, 5 mM ATP was added, and after an additional incubation time of 15 min the reaction was stopped by the addition of 0.4 ml of 20 % TCA.
(§3) Inorganic phosphate produced in the assays of V-ATPase, Na^+/K^+-ATPase and mouse heart F-ATPase was measured according the protocol of Wieczorek et al., while the determination of inorganic phosphate produced in the assays of beef heart F-ATPase followed the method of Fiske and Subarrow using ascorbic acid as reducing agent.

[2] = target: T2, F-ATPase (Bos taurus, UniProt P00829); test: Inhibition of F-ATPase activity in submitochondrial particles from beef heart; format: biochemical
T2 construct: Submitochondrial particles were obtained by ultrasonic treatment of the mitochondria; from tissue; host or cells: beef heart mitochondria, submitochondrial particles
Protocol: as §1, §2, §3

[3] = target: T3, Na+/K+-ATPase (Sus scrofa, UniProt P05024); test: Inhibition of Na+/K+-ATPase from pig kidney; format: biochemical
T3 construct: highly purified, Na^+/K^+-ATPase containing plasma membranes from pig kidney; from tissue; host or cells: pig kidney, purified plasma membranes
Protocol: as §1, §2, §3

[4] = test system: 3Y1; test: Growth inhibition of 3Y1 cells (MTT assay); format: cell-based, rat; conditions: read-out: IC50 growth inhibition
Protocol: (§4) Cell lines were obtained from the German Collection of Microorganisms and Cell Cultures (DSMZ). Cell lines 3Y1 and M1 (embryonal fibroblasts from 129/Ola × C57BL/6 mice, [30]) were a generous gift from Dr. S. Miyamoto, Fukoka, Japan, and Dr. P. F. Mühlradt, Braunschweig, Germany. All cell lines were cultivated under conditions recommended by the supplier. Growth inhibition was measured in microtiterplates. Aliquots of 120 μl of the suspended cells (50,000/ml) were given to 60 μl of a serial dilution of the inhibitor. After 5 days, growth was determined using the MTT assay.

[5] = test system: KB-V1; test: Growth inhibition of multidrug-resistant KB-V1 cells (MTT assay), with or without verapamil; format: cell-based; conditions: 120 h; KB-V1, mdr human cervix carcinoma; without verapamil; MTT after 5 days
Protocol: The novel antibiotics archazolids and apicularens (Fig. 1) were checked for their impact on the cell growth of a variety of mammalian cell lines from different tissues (Tab. 1). […] Apicularen B was the only exception, with an average IC50 value two orders of magnitude higher. Growth inhibition of the multidrug-resistant cell line KB-V1 was also measured in the presence of verapamil. […] The data in Tab 1. show, that unlike the archazolids, the apicularens are poor substrates of Pgp. To visualize the impact of the antibiotics, PtK2 (potoroo kidney) cells were incubated with the inhibitors and stained for intact acidic lysosomes (Fig. 2). […] The same observation was made with KB-3-1 cells (data not shown). […] Unlike the cell lines listed in Tab. 1, the growth of PtK2 cells was not completely stopped. The same holds true for A-498 cells (human kidney carcinoma). Both cell lines grow epithelial-like. There was obviously a differential reaction of cell lines to V-ATPase inhibitors. For A-431 cells (human epidermoid carcinoma) a dependence on the expression of the EGF receptor was shown.
as §4

[6] = test system: A-594; test: Growth inhibition of A-594 cells (MTT assay); format: cell-based, human; conditions: 120 h, read-out: IC50 growth inhibition
Protocol: as §4

[7] = test system: M1; test: Growth inhibition of M1 cells (MTT assay); format: cell-based, mouse; conditions: 120 h, read-out: IC50 growth inhibition
Protocol: as §4

[8] = test system: PtK2 cells; test: Inhibition of lysosomal acidification (LysoTracker staining); format: cell-based, potoroo; conditions: 4 hours with inhibitor
Protocol: PtK2 (ATCC CCL-56) or KB-3-1 cells were grown on glass coverslips (13 mm diameter) in four-well-plates. Exponentially growing cells were incubated with the inhibitors for 4 hours and stained for lysosomes with 50 nM LysoTracker Red DND-99 and for mitochondria with 75 nM MitoTracker Green FM (both from Molecular Probes) at 37°C for 30 min. The nuclei were stained using Hoechst 33258 (5 μg/ml). The coverslips were mounted upside down in PBS, fixed with nail polish, and observed under the fluorescent microscope.

[9] = test system: L-929; design: method as in PMID 12931860; conditions: L-929, murine connective tissue; ref [17]; read-out: IC50 growth inhibition; cited from earlier work
[10] = target: T4, Vo subunit c (Manduca sexta, UniProt P31403); design: method as in PMID 12186879; conditions: previous study; ref [10]; cited from earlier work
T4 construct: from tissue; host or cells: midgut of Manduca sexta larvae (purified V-ATPase)

[11] = target: T5, V-ATPase holoenzyme from the midgut of the tobacco hornworm (Manduca sexta, UniProt P31403); design: method as in PMID 12186879; conditions: ref [10], cited from earlier work
T5 construct: purified V-ATPase holoenzyme from the midgut of the tobacco hornworm; from tissue; host or cells: midgut of fifth instar Manduca sexta larvae

[12] = target: T5, V-ATPase holoenzyme from the midgut of the tobacco hornworm; test: Inhibition of purified V-ATPase holoenzyme activity; format: biochemical
Protocol: as §1, §2, §3
Fifth instar larvae of M. sexta (Lepidoptera, Sphingidae), weighing 6–8 g, were reared under long day conditions (16 h of light) at 27°C using a synthetic diet modified according to Bell et al.

[13] = test system: bacterial growth; conditions: ref [11],[15],[17]; cited from earlier work
[14] = mouse heart crude membranes, specific F-ATPase inhibitors
[15] = beef heart submitochondrial particles, specific F-ATPase inhibitors
[16] = experiment 1, inhibitor 0.1 mM, control 19.0
[17] = experiment 1, inhibitor 1 mM, control 19.0
[18] = experiment 2, inhibitor 1 mM, control 15.9
[19] = mouse heart crude membranes, inhibitor 1 μM
[20] = beef heart submitochondrial particles, inhibitor 1 μM
[21] = read-out: ATPase activity reduced to (remaining activity)

T5 sequence (P31403 whole entry): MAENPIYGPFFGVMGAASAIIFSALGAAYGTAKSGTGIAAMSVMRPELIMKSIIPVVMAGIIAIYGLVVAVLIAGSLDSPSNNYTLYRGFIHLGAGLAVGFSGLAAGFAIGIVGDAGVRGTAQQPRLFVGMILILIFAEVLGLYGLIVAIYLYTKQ
T4 sequence (P31403 whole entry): as above

CC[C@H]1/C=C/C=C/C[C@@H](C)[C@H](O)[C@@](C)(O)C(=O)[C@@H](C)[C@H](O)[C@@H](C)C(=O)[C@@H](C)[C@H](O)[C@@H](C)/C=C/C(=O)O[C@@H]2[C@H](C)[C@H](CC1)O[C@]1(CC[C@H](C)[C@H](C[C@@H](C)O)O1)[C@H]2C [oligomycin, reference compound]
ATPase activity reduced to (remaining activity) [1, 14]: around 25% | ATPase activity reduced to (remaining activity) [2, 15]: around 25%

C[C@@H]1O[C@@H](O[C@H]2C[C@@H](O)[C@]3(CO)[C@H]4[C@H](O)C[C@]5(C)[C@@H](C6=CC(=O)OC6)CC[C@]5(O)[C@@H]4CC[C@]3(O)C2)[C@H](O)[C@H](O)[C@H]1O [ouabain]
specific activity of Na+/K+-ATPase [3, 16]: 5.2 µmol/mg/min | specific activity of Na+/K+-ATPase [3, 17]: 0 µmol/mg/min | specific activity of Na+/K+-ATPase [3, 18]: 0 µmol/mg/min | effect on Na+/K+-ATPase activity ([3]; inhibitor 1 mM): completely inhibited

[N-]=[N+]=[N-] [azide, reference compound]
ATPase activity reduced to (remaining activity) [1, 14]: around 25% | ATPase activity reduced to (remaining activity) [2, 15]: around 25%

[O]=[V]([O-])([O-])[O-] [vanadate]
specific activity of Na+/K+-ATPase [3, 16]: 2.0 µmol/mg/min | specific activity of Na+/K+-ATPase [3, 17]: 0 µmol/mg/min | specific activity of Na+/K+-ATPase [3, 18]: 0 µmol/mg/min | effect on Na+/K+-ATPase activity ([3]; inhibitor 1 mM): completely inhibited

CO/C1=C\C(C)=C\[C@@H](C)[C@@H](O)[C@@H](C)C/C(C)=C/C=C/[C@H](OC)[C@@H]([C@@H](C)[C@@H](O)[C@H](C)[C@@]2(O)C[C@@H](O)[C@H](C)[C@@H](C(C)C)O2)OC1=O [bafilomycin A1, reference compound]
IC50 ([4]; 120 h, 3Y1, rat embryogenic fibroblast cell line, MTT after 5 days): 5.6 nM | IC50 [5]: 7.2 nM | IC50 ([6]; A-594, human lung carcinoma, MTT after 5 days): 0.4 nM | IC50 ([7]; M1, mouse embryogenic fibroblast cell line, MTT after 5 days): 2.6 nM | red LysoTracker staining indicating acidic lysosomes [8]: disappeared | IC50 [9]: 3.2 nM | labelling of / binding to subunit c [10]: prevented

apicularen
ATPase activity reduced to (remaining activity) [1, 19]: approximately 80% | effect of increased inhibitor concentration on F-ATPase activity ([1]; mouse heart crude membranes, inhibitor 10 μM): no substantial effect | ATPase activity reduced to (remaining activity) [2, 20]: approximately 80% | effect of increased inhibitor concentration on F-ATPase activity ([2]; beef heart submitochondrial particles, inhibitor 10 μM): no substantial effect

C/C=C/[C@H]1O[C@@](O)([C@@H](C)[C@H](O)[C@H](C)[C@H]2OC(=O)/C(OC)=C/C(C)=C/[C@@H](C)[C@@H](O)[C@@H](CC)[C@@H](O)[C@H](C)C/C(C)=C/C=C/[C@@H]2OC)C[C@@H](O)[C@@H]1C [concanamycin, reference compound]
remaining activity at 1 µM [1, 21]: ~80% | remaining activity at 1 µM [2, 21]: ~80%

CO/C1=C\C(C)=C\[C@@H](C)[C@@H](O)[C@@H](C)C/C(C)=C/C=C/[C@H](OC)[C@@H]([C@@H](C)[C@@H](O)[C@H](C)[C@@]2(O)C[C@@H](O)[C@H](C)[C@@H](C(C)C)O2)OC1=O [bafilomycin, reference compound]
ATPase activity reduced to (remaining activity) [1, 19]: approximately 80% | ATPase activity reduced to (remaining activity) [2, 20]: approximately 80%

CO/C1=C\C(C)=C\[C@@H](C)[C@@H](O)[C@@H](C)C/C(C)=C/C=C/[C@H](OC)[C@@H]([C@@H](C)[C@@H](O)[C@H](C)[C@@]2(O)C[C@@H](OC(=O)/C=C/C(=O)NC3=C(O)CCC3=O)[C@H](C)[C@@H](C(C)C)O2)OC1=O [bafilomycin B1]
IC50 per mg of protein, purified V-ATPase [11]: ca. 0.5 nmol per mg of protein | IC50 ([11]; read-out: half-maximal inhibition concentration of purified V-ATPase): ~10 nM | labelling of / binding to subunit c [10]: prevented

CNC(=O)O[C@@H](CC(C)C)c1nc([C@H]2OC(=O)/C=C/C/C(C)=C/[C@@H](O)[C@@H](C)\C=C(C)/C=C(C)\C=C\[C@@H](O)[C@H](C)[C@H](OC)/C(C)=C/C=C/[C@@H]2C)cs1 [archazolid B]
IC50 ([4]; Rattus norvegicus, 3Y1, 120 h): 1.1 nM | IC50 [5]: 35 nM | IC50 ([6]; Homo sapiens): 0.69 nM | IC50 ([7]; Mus musculus, Fibroblast): 0.35 nM | IC50 [12]: ~20 nM | IC50 per mg of protein, purified V-ATPase ([12]; equivalent of the half-maximal concentration): ca. 0.8 nmol per mg of protein | IC50 [9]: 1.1 nM | inhibition of bacterial growth [13]: failed to inhibit
